# From PubChem BioAssay (NCI)
#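 Briefly, cells in 96-well plates were exposed to five compound concentrations for 48 h, and endpoints were estimated by linear interpolation. GI50 = concentration required for 50% inhibition of growth. TGI is the concentration that stops growth completely.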
# Key:
# Assay in all cases: NCI tumour cell line growth inhibition, 48 h
# MCF7 breast = test system: MCF7 breast
# OVCAR-5 ovarian = test system: OVCAR-5 ovarian
# NCI-H460 lung = test system: NCI-H460 lung
# PC-3 prostate = test system: PC-3 prostate
# NCI-H522 lung = test system: NCI-H522 lung
# MOLT-4 leukemia = test system: MOLT-4 leukemia
# UO-31 renal = test system: UO-31 renal
# SR leukemia = test system: SR leukemia
# SNB-75 CNS = test system: SNB-75 CNS
# SK-MEL-2 melanoma = test system: SK-MEL-2 melanoma
SMILES,GI50 (MCF7 breast) [µM],TGI (MCF7 breast) [µM],GI50 (OVCAR-5 ovarian) [µM],TGI (OVCAR-5 ovarian) [µM],GI50 (NCI-H460 lung) [µM],TGI (NCI-H460 lung) [µM],GI50 (PC-3 prostate) [µM],TGI (PC-3 prostate) [µM],GI50 (NCI-H522 lung) [µM],TGI (NCI-H522 lung) [µM],GI50 (MOLT-4 leukemia) [µM],TGI (MOLT-4 leukemia) [µM],GI50 (UO-31 renal) [µM],TGI (UO-31 renal) [µM],GI50 (SR leukemia) [µM],TGI (SR leukemia) [µM],GI50 (SNB-75 CNS) [µM],TGI (SNB-75 CNS) [µM],GI50 (SK-MEL-2 melanoma) [µM],TGI (SK-MEL-2 melanoma) [µM]
CSc1ccc(C2=NN(C(=O)c3ccc(N)cc3)C(c3ccc(F)cc3)C2)cc1 (centres undefined),3.42,15.2,16.7,31.2,7.83,35.2,4.5,19.1,13.8,30.9,10.5,38.2,10.6,24,1.52,4.31,14.2,28.1,21.1,39.9
Brc1ccc(Br)nn1,1.21,2.64,11.7,24.8,3.04,> 33.8,4.41,22,0.243,0.928,1.69,5.48,2.62,14.9,0.439,3.52,1.97,8.41,2.91,20.4
COc1ccc(NC(=O)O[C@H]2[C@H](O[C@H]3[C@@H](O)COC(O[C@H]4C[C@H]5[C@@H]6CC=C7C[C@@H](O)CC[C@]7(C)[C@H]6CC[C@]5(C)[C@H]4[C@H](C)C(=O)CCC(C)C)[C@@H]3OC(C)=O)OC[C@@H](O)[C@@H]2O)cc1 (some centres undefined),< 0.01,1.47,0.169,26.2,< 0.01,1.76,< 0.01,4.87,< 0.01,0.0759,< 0.01,0.34,0.024,0.0978,< 0.01,29.9,< 0.01,6.88,< 0.01,0.192
Cc1c(N2C(=O)/C(=C\c3ccc(N(C)C)cc3)N=C2c2ccccc2)c(=O)n(-c2ccccc2)n1C,25.7,> 100,> 90.1,> 100,62.9,> 100,29.7,> 100,67.8,> 100,7.85,> 100,40.6,> 100,58.8,> 100,60.2,> 100,> 100,> 100
COc1cc(C2C(C#N)=C(N)Oc3cc4c(cc32)OCO4)cc2c1OCO2 (centres undefined),0.187,> 75,1.29,> 100,0.34,26.2,0.278,> 100,0.0926,2.72,0.935,49.5,0.653,> 100,0.0696,> 100,0.178,> 100,0.525,> 100
C=C=[CH][Sn]([c]1ccccc1)([c]1ccccc1)[c]1ccccc1,1.41,2.81,1.46,2.9,1.44,3.02,1.46,3.68,1.36,2.85,1.14,6.49,1.44,3.18,1.32,8.39,1.31,4.72,1.84,3.71
COc1ccc(-n2sc(=O)n(Cc3ccc(COC(=O)C(C)c4ccc(CC(C)C)cc4)cc3)c2=O)cc1 (centres undefined),1.82,9.54,5.58,11.8,5.41,12.5,5.63,12.8,0.994,2.25,1.21,3.89,0.819,1.6,1.46,50,5.95,12.2,8.01,17
COc1ccc(-c2cncn2-c2cc(OC)c(OC)c(OC)c2)cc1F,< 0.01,> 100,0.0789,> 100,< 0.01,> 100,0.0179,> 100,< 0.01,1.03,< 0.0283,> 100,0.0717,64.8,< 0.01,–,< 0.0119,> 100,< 0.0172,> 100
N#CSCC(=O)c1ccc(Cl)cc1,2.53,13.6,5.39,27.9,3.16,18.7,3.95,57.5,2.69,9.51,1.03,> 33.1,3.23,13.5,0.19,> 24.6,2.75,22.2,5.45,25.7
C/C(=N\Nc1cccc(Cl)n1)c1ccccn1,2,> 100,0.819,> 100,0.482,8.33,0.89,> 100,0.508,> 40.3,0.407,> 100,0.466,4.33,0.421,> 44.2,2.28,> 56.9,2.72,> 100
Cc1cc2c(C(C)C)c(O)c(O)c(C=O)c2c(O)c1-c1c(C)cc2c(C(C)C)c(O)c(O)c(C=O)c2c1O (tested in a mixture with another compound),1.18,6.9,1.65,5.26,0.484,1.87,0.455,3.42,0.584,2.44,0.748,13.6,1.64,4.56,1.46,17.8,1.55,5.03,1.64,4.07
C[C@@H]1CN2[C@H]3[C@@H]1CC[C@]31CCC(=O)O[C@]1(C)[C@@H]1CC[C@H]3CCC=C3[C@@H]12,> 70,> 70,> 70,> 70,> 70,> 70,> 70,> 70,> 70,> 70,> 70,> 70,43.5,> 70,> 70,> 70,35.3,> 70,> 70,> 70
